Assays:
[1] = Distribution of 14C label in soybean plant parts after seed treatment
Description: (§1) ^14C-radiolabelled compounds are obtained from Lew Mander (Australian National University). ^14C-GA3 is dissolved in water:ethanol, 80:20, v/v; ^14C-GA9 and ^14C-GA12 are dissolved in 100% ethanol. Seeds of Asgrow 3237 soybeans are treated separately with solutions of each of the ^14C-radiolabelled compounds (1.7-6.8 μg; 10-40 ppm; 111,000-2,000,000 dpm/seed) by placing one to four μl of the dosing solution directly on the seed coat (^14C-GA3, GA9, and GA12), or on the hilum portion of the seed (^14C-GA3). After evaporation of the carrier solvent (approx. one hour), the treated seed is planted in containers containing approximately 30 gm of Metromix-350, and transferred to a growth chamber. Plants are grown under a 12 hour light/12 hour dark regime at 92° F. (33° C.)and 75% humidity. The pattern of uptake and translocation of ^14C-radioactivity in treated seed is monitored up to 12 days past initial treatment. For most experiments, three replicate plants are harvested at one hour after treatment, one day after treatment (DAT), two DAT, three DAT, six or seven DAT, and 12 DAT. At the time of each harvest, plants are divided into leaves, epicotyl, cotyledon, hypocotyl, and roots. The level of ^14C-radioactivity in different plant parts is determined by extraction of plant tissues with aqueous methanol and scintillation counting. The extent of metabolism of the ^14C-labelled GA compounds in planta is determined by HPLC analysis of plant extracts. The details are as follows.
(§2) The general extraction procedure consisted of blending the plant parts in a high speed polytron tissue homogenizer for 1-5 minutes with 10-20 ml of ice-cold methanol:water, 80:20, v/v, followed by vacuum filtration through a Whatman glass fiber filter. The filter cake is re-extracted as necessary using the procedure described above until an insignificant amount of radioactivity is removed. Prior to combining the extracts from each sample, aliquots are weighed and analyzed by liquid scintillation counting (LSC) to determine the amount of extracted radioactivity in each extract. Aliquots of the air-dried filter cakes are combusted and analyzed by LSC in order to determine the amount of non-extracted radioactivity. The extracts are combined and, when necessary, concentrated by rotary evaporation at a bath temperature of less than 35° C. to a small volume for analysis by HPLC to determine the extent of metabolism of the ^14C-labelled GA compounds in planta.

[2] = Half-lives of 14C-labelled GA compounds in planta; settings: ^14C-labelled compound on seed of Asgrow 3237 soybeans
Description: as §1, with “At the time of each harvest, plants are divided into leaves, epicotyl, cotyledon, hypocotyl, and roots.” left out, “The details are as follows.” left out
as §2, with “The extracts are combined and, when necessary, concentrated by rotary evaporation at a bath temperature of less than 35° C. to a small volume for analysis by HPLC to determine the extent of metabolism of the ^14C-labelled GA compounds in planta.” left out

[3] = system: constitutively GA-deficient transgenic dwarf soybean line 719; assay: Field trial of seed coating application rates, GA-deficient soybean; format: in vivo, Glycine max; settings: for 719 Height, cm, Heavy soil / 719 Height, cm, Light soil / No. 719 Emerged, Heavy soil / No. 719 Emerged, Light soil / No. 719 Not Rescued, Heavy soil / No. 719 Not Rescued, Light soil: seed coating
Description: GA3, GA3-3-acetate, GA5, GA9, and GA12 are evaluated in further field trials. […] The objectives of these tests are: 1) to determine if seed coatings, as compared to imbibition, of GA compounds facilitate rescue of constitutively GA-deficient transgenic dwarf soybeans (transgenic lines 719−2 plus 719+17) without causing elongation of wild-type soybeans (line A4922), and 2) to determine the seed treatment rate ranges for each of the selected GA compounds that would provide rescue of constitutively GA-deficient transgenic dwarf soybeans (transgenic lines 719−2 plus 719+17) without causing elongation of wild-type soybeans (line A4922).
Seeds are treated with GA3, GA5, GA9, GA12, and GA3-3-acetate at rates of 0, 0.1, 1, 10, and 100 μg/seed. These GA compounds are applied to the seeds using a Hege 11 seed treater (Hans-Ulrich Hege GmbH & Co., Waldenburg, Germany); 100% acetone is used as the carrier solvent. The amount of liquid introduced into the seed treater is six fluid ounces/100 lbs seed rate. In addition, GA12 is tested at 50 μg/seed. The untreated control (UTC) consisted of dry, untreated seeds. Seeds of constitutively GA-deficient transgenic dwarf soybean line 719 and wild-type A4922 are sown in both light and heavy soil. The planting depth is 0.5 to 1 inch (1.27 to 2.54 cm); watering is via drip irrigation. The experiment is carried out in three repetitions, using 25 seeds/plot (one five foot (152.4 cm) long row) for line 719, and 75 seeds/plot (two eight foot (243.8 cm) rows) for line A4922. Observations included total emergence, number of dwarfs not rescued, uniformity in plant height, average plant height, visual notes, and digital photos.
In all the experiments reported in Tables 17-24, treatments are replicated three times in a randomized block design. Data are analyzed using LSD (least significant difference) 0.05 probability using the PRM 5.0 Statistical Analysis Program (SAS Institute, North Carolina).

[4] = system: AX5/antisense CPScc soybean line 234 (R3); assay: Hilum seed treatment of epicotyl-intensive GA-deficient soybean, height (FIG. 43); format: in vivo, Glycine max; settings: 10 DAP; for restoration of height of line 234 soybeans: hypocotyl and epicotyl elongation, hypocotyl to epicotyl ratio not maintained
Description: The purpose of this study is to evaluate the ability of four GA compounds, i.e., GA9, GA5, GA3-3-acetate, and GA12, to restore normal growth in AX5/antisense CPScc soybean lines when applied as a seed treatment.
Line 46 plants are R2; Line 234 plants are R3.
The GA compounds are dissolved in ethanol and applied to the hilum of dry seeds as not more than 10 μl droplets with a syringe. If multiple applications are made to seeds, the previous application is allowed to dry before a subsequent application is made.
Seeds are sown 1 inch deep in commercial potting soil (Metromix 200) in 4-inch plastic pots and placed in a greenhouse set for 12 hours artificial light and a temperature regime of 85° F. (29° C.) day and 75° F. night (24° C.). Pots are watered as necessary by overhead hand watering. Hypocotyl and epicotyl measurements are made for each plant at various stages of plant growth.
The lower dashed horizontal line represents the total height of untreated AX5 line 234 soybeans. The upper dashed horizontal line represents the total height of untreated wild-type A4922 soybeans. Measurements are made 10 days after planting.

Row | Structure (SMILES) | 719 Height, cm, Heavy soil ([3]; 10 μg compound per seed) | 719 Height, cm, Light soil ([3]; 10 μg compound per seed) | No. 719 Emerged, Heavy soil ([3]; 10 μg compound per seed) | No. 719 Emerged, Light soil ([3]; 10 μg compound per seed) | No. 719 Not Rescued, Heavy soil ([3]; 10 μg compound per seed) [ef] | No. 719 Not Rescued, Light soil ([3]; 10 μg compound per seed) | 719 Height, cm, Heavy soil ([3]; 100 μg compound per seed) [ab cm] | 719 Height, cm, Light soil ([3]; 100 μg compound per seed) | No. 719 Emerged, Heavy soil ([3]; 100 μg compound per seed) | No. 719 Emerged, Light soil ([3]; 100 μg compound per seed) | No. 719 Not Rescued, Heavy soil ([3]; 100 μg compound per seed) [f] | No. 719 Not Rescued, Light soil ([3]; 100 μg compound per seed) | restoration of height of line 234 soybeans [4] | also measured
1 | C=C1C[C@]23C[C@H]1CC[C@H]2[C@@]12CCC[C@@](C)(C(=O)O1)[C@H]2[C@@H]3C(=O)O [GA9] | 4.0 d-i cm | 5.0 efg cm | 16.3 b-e | 21.7 ab | 0.7 | 0.3 | 8.3 | 10.3 cd cm | 20.3 a-d | 19.0 a-e | 0 | 0 | restore normal height to line 234 soybeans | ^14C Label Distribution (% of dose), Cotyledon ([1]; 3 DAP): 60 % of dose; ^14C Label Distribution (% of dose), Hypocotyl ([1]; 3 DAP): 6.8 % of dose; ^14C Label Distribution (% of dose), Root ([1]; 3 DAP): 1.3 % of dose; ^14C Label Distribution (% of dose), Cotyledon ([1]; 12 DAP): 54 % of dose; ^14C Label Distribution (% of dose), Epicotyl ([1]; 12 DAP): 0.1 % of dose; ^14C Label Distribution (% of dose), Hypocotyl ([1]; 12 DAP): 1.0 % of dose; ^14C Label Distribution (% of dose), Leaves ([1]; 12 DAP): 0.3 % of dose; ^14C Label Distribution (% of dose), Root ([1]; 12 DAP): 1.0 % of dose; Half-life (days) in planta [2]: <1 days; appearance of line 719 seedlings ([3]; 0.1 and 1 μg per seed): appeared unusually abnormal; activity relative to GA3, GA3-3-acetate and GA5 [4]: approximately 10 times less active
2 | C=C1C[C@]23C[C@@]1(O)CC[C@H]2[C@@]12CC=C[C@@](C)(C(=O)O1)[C@H]2[C@@H]3C(=O)O [GA5] | 7.3 bc cm | 11.3 bc cm | 20.0 a-d | 20.0 a-d | 0.3 | 0.7 | 9.0 | 12.0 b cm | 12.3 ef | 14.3 f | 0 | 0 | restore normal height to line 234 soybeans | 719 Height, cm, Heavy soil ([3]; 0.1 μg compound per seed): 5.0 def cm; 719 Height, cm, Light soil ([3]; 0.1 μg compound per seed): 4.3 fg·cm; No. 719 Emerged, Heavy soil ([3]; 0.1 μg compound per seed): 22.0 ab; No. 719 Emerged, Light soil ([3]; 0.1 μg compound per seed): 21.7 ab; No. 719 Not Rescued, Heavy soil ([3]; 0.1 μg compound per seed): 1.7 def; No. 719 Not Rescued, Light soil ([3]; 0.1 μg compound per seed): 4.3 c; 719 Height, cm, Heavy soil ([3]; 1 μg compound per seed): 4.7 g·cm·days; 719 Height, cm, Light soil ([3]; 1 μg compound per seed): 6.3 e cm; No. 719 Emerged, Heavy soil ([3]; 1 μg compound per seed): 21.0 abc; No. 719 Emerged, Light soil ([3]; 1 μg compound per seed): 22.7 a; No. 719 Not Rescued, Heavy soil ([3]; 1 μg compound per seed): 0.7 ef; No. 719 Not Rescued, Light soil ([3]; 1 μg compound per seed): 0; response of line 234 height ([4]; seed treatment rates between 0.1 and 1 μg/seed): generally similar response
